The test system of series [1] is preclinical models of neuropathic pain. The note with it: cited from earlier work.
Series [2] concerns native Ih in normal rat L4 dorsal root ganglion neurons. Nature of the series: Whole cell patch clamp of native Ih in dissociated L4 DRG neurons of uninjured rats (lidocaine). It counts as cell-based. To be noted: bath-applied at neutral pH. As for the experimental part: Lidocaine was tested for its effect on Ih expressed in dissociated L4 dorsal root ganglion neurons from uninjured rats to determine whether this well known Na channel blocker could have other mechanisms of action.
DRG were extirpated, dissociated and cultured 3-4 days on poly-D-lysine coated coverslips as described in Example 10. Ih was measured using the whole cell configuration of the patch clamp technique according to the methods described in Example 10 with the exception that the pipette solution was the solution used in Example 3. Neurons were challenged with a family of hyperpolarizing voltage pulses (−60 mV to −150 mV in increments of 10 mV) from a holding potential of −50 mV. Ih was determined at the end of 600 msec duration test pulses. Lidocaine was bath-applied at neutral pH and the percent inhibition of control Ih was determined after lidocaine achieved steady state block. Plotted is the steady state current observed at −134 mV as a percent of control after incubation of lidocaine at the indicated concentrations. […] Lidocaine block was reversible. Data were obtained from 3 cells having control Ih densities of −1.5, −2.0 and −2.2 pA/pF.

Series [3] has as its system ectopic firing in injured peripheral nerves. The note with it: systemically administered; cited from earlier work.
The subject of series [4] is CFA-injected rats. Nature of the series: Tactile allodynia in the complete Freund's adjuvant (CFA) paw model of inflammatory pain. Type of series: in vivo, rat.
The target in series [5] is T1, human HCN1 (Homo sapiens, UniProt O60741).
T1 construct: expressed in transfected cells; host or cells: Xenopus laevis oocytes injected with cRNA transcribed from pGEM HE-human HCN1
T1 sequence (O60741 1-890): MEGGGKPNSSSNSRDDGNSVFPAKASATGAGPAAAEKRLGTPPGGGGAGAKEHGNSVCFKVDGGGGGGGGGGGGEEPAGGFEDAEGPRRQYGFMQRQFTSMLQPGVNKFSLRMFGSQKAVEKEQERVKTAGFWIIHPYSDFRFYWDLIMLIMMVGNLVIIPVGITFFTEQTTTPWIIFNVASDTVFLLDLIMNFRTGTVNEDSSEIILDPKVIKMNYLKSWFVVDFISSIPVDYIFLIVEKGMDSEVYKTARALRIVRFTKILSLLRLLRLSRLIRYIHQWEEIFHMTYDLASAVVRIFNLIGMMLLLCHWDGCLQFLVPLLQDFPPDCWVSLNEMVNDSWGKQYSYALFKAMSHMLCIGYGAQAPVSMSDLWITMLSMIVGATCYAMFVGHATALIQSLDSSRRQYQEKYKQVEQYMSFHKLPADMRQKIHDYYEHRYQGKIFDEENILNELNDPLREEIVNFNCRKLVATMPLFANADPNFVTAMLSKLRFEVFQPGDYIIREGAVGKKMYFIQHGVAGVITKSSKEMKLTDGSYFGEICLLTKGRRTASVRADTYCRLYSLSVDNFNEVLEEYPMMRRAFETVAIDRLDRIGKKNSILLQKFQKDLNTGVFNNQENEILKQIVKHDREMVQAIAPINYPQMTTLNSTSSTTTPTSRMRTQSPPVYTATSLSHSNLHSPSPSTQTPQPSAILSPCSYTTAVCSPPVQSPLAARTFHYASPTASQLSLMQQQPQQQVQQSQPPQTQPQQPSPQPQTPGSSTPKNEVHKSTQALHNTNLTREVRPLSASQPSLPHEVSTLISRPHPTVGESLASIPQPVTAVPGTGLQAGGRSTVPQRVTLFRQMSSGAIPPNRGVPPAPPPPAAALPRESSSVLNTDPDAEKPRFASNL
Nature of the series: Two-electrode voltage clamp of Xenopus oocytes injected with human HCN1 cRNA. Type of series: cell-based. The note with it: for block of HCN1 currents: Cs+ 3 mM in ND-96. (Two-electrode voltage clamp holds a large cell at a set potential and records current.)

Series [6] concerns the target T2, human HCN3 (Homo sapiens, UniProt Q9P1Z3).
T2 construct: expressed in transfected cells; host or cells: HEK293 cells stably transfected with hHCN3-pCDNA3.1 Zeo
T2 sequence (Q9P1Z3 1-774): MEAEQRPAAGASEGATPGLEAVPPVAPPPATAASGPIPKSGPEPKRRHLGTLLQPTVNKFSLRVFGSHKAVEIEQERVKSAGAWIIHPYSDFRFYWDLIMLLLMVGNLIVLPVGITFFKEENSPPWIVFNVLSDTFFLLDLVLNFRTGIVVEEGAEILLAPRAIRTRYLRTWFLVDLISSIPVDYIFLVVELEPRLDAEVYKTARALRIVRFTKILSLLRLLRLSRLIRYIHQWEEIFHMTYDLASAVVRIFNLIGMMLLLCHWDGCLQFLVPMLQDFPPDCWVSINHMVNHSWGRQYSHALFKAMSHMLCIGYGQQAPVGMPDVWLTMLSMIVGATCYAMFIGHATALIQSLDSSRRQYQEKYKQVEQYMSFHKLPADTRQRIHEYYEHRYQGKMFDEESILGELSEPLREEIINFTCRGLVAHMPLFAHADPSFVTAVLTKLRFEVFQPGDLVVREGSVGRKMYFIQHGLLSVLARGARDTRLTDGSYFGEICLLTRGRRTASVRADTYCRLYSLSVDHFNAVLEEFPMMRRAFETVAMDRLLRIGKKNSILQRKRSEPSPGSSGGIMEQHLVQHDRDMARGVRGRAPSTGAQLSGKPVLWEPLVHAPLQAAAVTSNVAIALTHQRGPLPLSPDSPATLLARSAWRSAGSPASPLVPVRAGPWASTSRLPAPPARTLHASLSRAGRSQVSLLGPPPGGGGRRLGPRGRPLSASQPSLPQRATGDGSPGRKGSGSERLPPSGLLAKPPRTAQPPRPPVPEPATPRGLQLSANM
Nature of the series: Whole cell patch clamp of HEK293 cells stably expressing human HCN3. Type of series: cell-based.

In series [7] the test system is Ih in large DRG neurons. The series is described as follows: Whole cell patch clamp of Ih in acutely dissociated large L5 DRG neurons of SNL and control rats. Type of series: cell-based, rat. On the technique in general: In patch-clamp work, channel activity is measured electrically.
Series [8] concerns rat mild thermal injury model. Nature of the series: Spontaneous pain behaviors in the rat mild thermal injury (first-degree burn) model. The note with it: for suppression of spontaneous pain behaviors: 30 and 60 min; for adverse behavioral effects: morphine 3 mg/kg or ZD7288 10 mg/kg i.p.
Series [9] deals with spontaneous firing of injured primary afferents (Aβ and Aδ fibers). Nature of the series: In vitro single fiber recording of spontaneous (ectopic) discharges in excised dorsal root/DRG/spinal nerve preparations from SNL rats. Also noted: species or system rat.
Series [10] concerns SNL rats. Nature of the series: Tactile allodynia (von Frey 50% paw withdrawal threshold) in the SNL (Chung) neuropathic pain model. It counts as in vivo, rat. The note with it: i.p. As for the experimental part:
Preparation of SNL (spinal nerve ligation) model: All studies were conducted in keeping with the guidelines of the Institutional Animal Care Committees of the University of California, San Diego and RWJPRI. Male Harlan Sprague-Dawley rats, 100-150 g, were housed in cages with solid bottoms and sawdust bedding, with a 12/12 h reversed light cycle (lights on 2100-900), and allowed free access to food pellets and water. Animals were housed in groups of 2 after surgical interventions. A surgical neuropathy was created as follows, to create a model commonly referred to as the SNL, or spinal nerve ligation model, also commonly referred to as the Chung model. Under isoflurane/oxygen anesthesia, a dorsal midline incision was made from approximately L3-S2. Using a mixture of sharp and blunt dissection, the left L6/S1 posterior interarticular process was exposed and resected to permit adequate visualization of the L6 transverse process, which was gently removed. Careful teasing of the underlying fascia exposed the left L4 and L5 spinal nerves distal to their emergence from the intervertebral foramina. The nerves were gently separated, and the L5 and in some cases either the L4 (for in vitro electrophysiology recordings) or the L6 nerve firmly ligated with 6-0 silk suture material. The wound was then inspected for hemostasis and closed in two layers. Animals with thresholds greater than 4 g were considered unsuccessful preparations(Chaplan et al., (1994) Journal of Neuroscience Methods 53: 55-63).
Behavioral assessment: Behavioral signs of allodynia were documented as follows. Briefly, rats were transferred to a testing cage with a wire mesh bottom and allowed to acclimate for 10-15 minutes. […] Lifting of the paw was recorded as a positive response and the next lightest filament chosen for the next measurement. […]

For series [11], the system named is normal rats. Nature of the series: 55° C. hot plate test (latency to paw lick), acute thermally induced pain. Type of series: in vivo, rat. The note with it: 10 mg/kg i.p. How it is done:
A cutoff of 20 seconds of thermal surface exposure was employed to prevent tissue damage. Drug administration: Normal rats were administered ZD7288, 10 mg/kg, or an equivalent volume of saline, i.p. at time 0. Behavioral assessments were performed at 45, 60 and 75 minutes after drug administration.

Here are results for seven compounds from US20030022813A1, “Treating pain by targeting hyperpolarization-activated, cyclic nucleotide-gated channels” (priority 2001, published 2003).

“Also recorded” adds a separate entry of the source.

In the case of `CCCCN1CCCCC1C(=O)Nc1c(C)cccc1C` (stereo not shown) [bupivacaine], in series [1], the anti-hyperalgesic activity entry is on record as “does not possess any anti-hyperalgesic activity”.
In the case of `CCN(CC)CC(=O)Nc1c(C)cccc1C` [lidocaine], in [2], the “reversibility of block of Ih” value is reported as “reversible”. In series [3], the “effect on ectopic firing in injured peripheral nerves” value is on record as “stops the ectopic firing”.
`CC(C)Cc1ccc(C(C)C(=O)O)cc1` (stereo not shown) [ibuprofen]: the “suppression of CFA-induced tactile allodynia” value is given as “suppressed” in series [4] (ibuprofen 30 mg/kg i.p.) and “some efficacy” in series [4] (ibuprofen 30 mg/kg i.p., listed as Ibuprofen).
Regarding `[Cl-].[Cs+]` [Cs^+, CsCl], the “effect on endogenous inward currents of oocytes” value in series [5] (Cs+ 3 mM) is given as “no effect”. For the same compound, the “block of HCN1 currents” value in series [5] (Ih evoked by stepping to −80 mV, n=3) was 94%; in series [5] (Ih evoked by stepping to −100 mV, n=3) it was 92%; in series [5] (Ih evoked by stepping to −120 mV, n=3), 90%. For the same compound, the “block of low threshold inward currents in HCN1-injected oocytes, reversibility” value in [5] (Cs+ 3 mM, n=3) is reported as “reversibly blocked”. Further, the “block of hyperpolarization-induced inward currents (Ih)” value in series [6] (3 mM CsCl) is given as “completely blocked”. The “reversibility of effect on HCN3 currents” value in series [6] (Cs+ 3 mM) is “rapidly reversible”. Moreover, the “block of Ih in large DRG neurons” value in [7] (extracellular Cs+ 3 mM) is given as “efficacious block”.
For the compound `CN1CC[C@]23c4c5ccc(O)c4O[C@H]2[C@@H](O)C=C[C@H]3[C@H]1C5` [morphine], the “suppression of CFA-induced tactile allodynia” value in [4] (morphine 3 mg/kg i.p.) is “suppressed”. For the same compound, the “suppression of spontaneous pain behaviors” value in series [8] (morphine 3 mg/kg i.p.) is “near complete suppression; also recorded: suppressed spontaneous pain”. Moreover, the adverse behavioral effects entry in series [8] was “No adverse behavioral effects”.
Consider `CCN(c1ccccc1)c1cc(=NC)n(C)c(C)n1.Cl` [ZD7288], for which the “cells with no detectable Ih after previous bath exposure and wash” value in series [6] (ZD7288 50 μM, subsequently washed, previously 6 of 6 cells expressed Ih) is reported as 3 of 3. Moreover, the “block of hyperpolarization-induced inward currents (Ih)” value in series [6] (ZD7288 50 μM, n=3) is reported as 98+/−2%. Further, in series [6] (ZD7288 50 μM, washout period of at least 15 min), the “reversibility of effect on HCN3 currents” value is “did not reverse”. Also, in series [9] (100 micromolar), the “effect on spontaneous firing of Aδ fiber” value is “attenuation of firing” and the “time to complete suppression of ectopic firing, typical Aβ fiber” value lay within 3 to 4 min. Further, in [9] (after application of ZD7288), the “conduction blockade of evoked action potentials” value is reported as “no conduction blockade”. Besides, the “suppression of spontaneous discharges of Aβ fibers” value in series [9] (bath application 100 μM for 5 min) is recorded as “complete suppression; also recorded: completely suppressed”. In addition, the “efficacy of suppression of allodynic responses (% MPE)” value in [10] was 75.7+/−15.4%. Besides, the “suppression of tactile allodynia” value in series [10] (1, 3, 10 mg/kg) is “suppressed allodynic responses in a dose-dependent manner; also recorded: blocked in a dose dependent manner; also recorded: suppressed the tactile allodynia”. The “behavioral adverse effects / motor function” value in series [10] (up to 10 mg/kg) was “No untoward behavioral effects; also recorded: normal motor function; also recorded: without overt adverse effects on behavior”. Besides, the “effect on acute thermally-evoked pain” value in series [11] was “minimal effect”. In addition, the “difference from saline in hot plate latency” value in [11] (45 or 60 min) is recorded as “No statistically significant difference”. Besides, in series [11] (75 min, statistically significant, minor), the “difference from saline in hot plate latency” value is reported as “approximately 15%”. Moreover, the “suppression of CFA-induced tactile allodynia” value in series [4] (ZD7288 10 mg/kg i.p., 10 mg/kg) is reported as “suppressed allodynia; also recorded: markedly suppressed”. Further, the “block of Ih in large DRG neurons” value in series [7] (ZD7288 50 μM) is given as “efficacious block”. Further, the “suppression of spontaneous pain behaviors” value in [8] (ZD7288 10 mg/kg i.p., 10 mg/kg) is reported as “near complete suppression; also recorded: suppressed spontaneous pain”. For the same compound, the adverse behavioral effects entry in [8] is recorded as “No adverse behavioral effects”.
With `NCC1(CC(=O)O)CCCCC1` [gabapentin], the “suppression of CFA-induced tactile allodynia” value in [4] (gabapentin 100 mg/kg i.p.) is reported as “not”.
